Results as given in patent publication US8168231B2, “Antimicrobial composition useful for preserving wood” (Rohm and Haas Company, priority 2006, dated 2012).
Where two headings read alike, the source gives them in different places.

Legend:
Format in all cases: cell-based
[1] = system: Candida albicans (C. albicans—ATCC # 10231); assay: Synergy test, microtiter plate high resolution MIC assay (PDB medium); details: ppm AI; for MIC: Candida albicans, read-out: MIC of component acting alone (Ca or Cb)
Description: (§1) One measure of synergism is the industrially accepted method described by Kull, F. C.; Eisman, P. C.; Sylwestrowicz, H. D. and Mayer, R. L., in Applied Microbiology 9:538-541 (1961), using the ratio determined by the formula: Ca/CA+Cb/CB=Synergy Index (“SI”) wherein: • CA=concentration of compound A (first component) in ppm, acting alone, which produced an end point (MIC of Compound A). • Ca=concentration of compound A in ppm, in the mixture, which produced an end point. • CB=concentration of compound B (second component) in ppm, acting alone, which produced an end point (MIC of Compound B). • Cb=concentration of compound B in ppm, in the mixture, which produced an end point.
(§2) When the sum of Ca/CA and Cb/CB is greater than one, antagonism is indicated. […] The lower the SI, the greater the synergy shown by that particular mixture. The minimum inhibitory concentration (MIC) of an antimicrobial compound is the lowest concentration tested under a specific set of conditions that prevents the growth of added microorganisms.
(§3) Synergy tests were conducted using standard microtiter plate assays with media designed for optimal growth of the test microorganism. Minimal salt medium supplemented with 0.2% glucose and 0.1% yeast extract (M9GY medium) was used for bacteria testing; Potato Dextrose Broth (PDB medium) was used for yeast and mold testing. In this method, a wide range of combinations of microbicides was tested by conducting high resolution MIC assays in the presence of various concentrations of biocides. High resolution MICs were determined by adding varying amounts of microbicide to one column of a microtitre plate and doing subsequent ten-fold dilutions using an automated liquid handling system to obtain a series of end points ranging of active ingredient. The synergy of the combinations of the present invention was determined against two bacteria, Pseudomonas aeruginosa (Ps. aeruginosa—ATCC # 9027) and Staphylococcus aureus (S. aureus—ATCC # 6538), a yeast, Candida albicans (C. albicans—ATCC # 10231), and a mold, Aspergillus niger (A. niger—ATCC 16404). The bacteria were used at a concentration of about 1-6×10^6 bacteria per mL and the yeast and mold at 1−5×10^5 fungi per mL. These microorganisms are representative of natural contaminants in many consumer and industrial applications. […] (yeast and mold) or 30° C. (bacteria).

[2] = system: Aspergillus niger (A. niger—ATCC 16404); assay: as above; details: ppm AI; for MIC: Aspergillus niger, read-out: MIC of component acting alone (Ca or Cb)
Description: as §1, §2, §3

[3] = system: Pseudomonas aeruginosa (Ps. aeruginosa—ATCC # 9027); assay: Synergy test, microtiter plate high resolution MIC assay (M9GY medium); details: ppm AI; for MIC: Pseudomonas aeruginosa, read-out: MIC of component acting alone (Ca or Cb)
Description: as §1, §2, §3

[4] = system: Staphylococcus aureus (S. aureus—ATCC # 6538); assay: as above; details: ppm AI; for MIC: Staphylococcus aureus, read-out: MIC of component acting alone (Ca or Cb)
Description: as §1, §2, §3

Work on CCCCCCCCn1sc(Cl)c(Cl)c1=O [DCOIT, 4,5-dichloro-2-n-octyl-4-isothiazolin-3-one] yielded an MIC ([1]; ATCC10231, Table 1, contact time 48 hrs) of 1 µg/mL, an MIC ([1]; ATCC10231, Table 1, contact time 72 hrs) of 1 µg/mL and an MIC ([2]; ATCC16404, 72 h, Table 1, contact time 3 days) of 0.25 µg/mL. It also gave an MIC ([2]; ATCC16404, 72 h, Table 2, contact time 3 days) of 0.0875 µg/mL, an MIC ([2]; ATCC16404, 168 h, Table 1, contact time 7 days) of 0.25 µg/mL and an MIC ([2]; ATCC16404, 168 h, Table 2, contact time 7 days) of 0.2 µg/mL. The MIC ([3]; ATCC9027, 24 h, Table 1, contact time 24 hrs) was 3 µg/mL, the MIC ([3]; ATCC9027, 24 h, Table 2, contact time 24 hrs) was 2 µg/mL and the MIC ([3]; ATCC9027, 48 h, Table 1, contact time 48 hrs) was 3 µg/mL. It also gave an MIC ([3]; ATCC9027, 48 h, Table 2, contact time 48 hrs) of 4.25 µg/mL, an MIC ([4]; ATCC6538, 24 h, Table 1, contact time 24 hrs) of 0.5 µg/mL and an MIC ([4]; ATCC6538, 24 h, Table 2, contact time 24 hrs) of 0.65 µg/mL. For the same compound, the MIC ([4]; ATCC6538, 48 h, Table 1, contact time 48 hrs) was 0.5 µg/mL and the MIC ([4]; ATCC6538, 48 h, Table 2, contact time 48 hrs) was 0.65 µg/mL.

In the case of “Monoethanolamine complex of copper carbonate [Cu-MEA]”, the “MIC of component acting alone (Ca or Cb)” value ([1]; Table 1, contact time 48 hrs) is reported as 200 ppm, the “MIC of component acting alone (Ca or Cb)” value ([1]; Table 1, contact time 72 hrs) is reported as 200 ppm and the “MIC of component acting alone (Ca or Cb)” value ([2]; Table 1, contact time 3 days) is reported as 300 ppm. For the same compound, the “MIC of component acting alone (Ca or Cb)” value ([2]; Table 1, contact time 7 days) was 300 ppm, the “MIC of component acting alone (Ca or Cb)” value ([3]; Table 1, contact time 24 hrs) was 120 ppm and the “MIC of component acting alone (Ca or Cb)” value ([3]; Table 1, contact time 48 hrs) was 120 ppm. The “MIC of component acting alone (Ca or Cb)” value ([4]; Table 1, contact time 24 hrs) was 80 ppm and the “MIC of component acting alone (Ca or Cb)” value ([4]; Table 1, contact time 48 hrs) was 200 ppm.
